Laboratory results reported in PMC7822123, “A Chemosensory Protein Detects Antifeedant in Locust (Locusta migratoria)” (Insects, 2020).
“Also recorded” adds a separate entry of the source. Like-named read-outs stand apart in the source and are kept apart here.

Legend:
[1] = target: T1, recombinant LmigCSPIII (Locusta migratoria, UniProt Q3LB86); assay: Fluorescent competitive binding assay with 1-NPN as reporter; settings: for binding affinity to LmigCSPIII (in words): among 78 tested compounds
Procedure: Compounds (Table 2) used in the binding assay were purchased from Sigma (St. Louis, MO, USA) and were of reagent grade. Ligand binding specificity was measured with a fluorescent assay on an FS-55 emission fluorescence spectrometer (Perkin-Elmer, Waltham, MA, USA), as previously described. […] The recombinant protein was dissolved in 50 mM Tris-Buffer (pH 7.4) and titrated with aliquots of 1 mM methanol solutions of the ligands to final concentrations of […]. The florescent probe 1-NPN was excited at 337 nm and emission spectra were recorded between 380 nm and 440 nm. We used Graphpad Prism 5 software (Graphpad Software, San Diego, CA, USA) to calculate dissociation constants and draw the binding curves.

[2] = target: T1, recombinant LmigCSPIII; assay: as above; settings: at a concentration of 10 µM
[3] = system: Locusta migratoria fourth instar nymphs; assay: Dual-choice feeding assay, feeding response with intact or excised antennae; type: in vivo
Procedure: For the role of antenna or mouthparts in the detection of AMCAL, a dual-choice experiment was performed. Newly molted fourth instar locusts of similar weights were anesthetized on ice for several minutes. Antennae were carefully removed with fine scissors, and then the locusts were fed with fresh corn leaves for 24 h. The locusts were then placed in feeding boxes, each of which contained two pieces of corn leaves of the same size of 4 × 3 cm, one treated with AMCAL in solvent, and the other one treated with solvent alone. The two pieces of corn leaves were placed about 12 cm apart. Feeding response (FR) was defined as follows: a leaf that was ingested, regardless of amount, was scored as 1, whereas no consumption was scored as 0. The experimental duration was about 1 h. When approximately 50% of the control foliage had been consumed, the experiment was terminated, and the feeding amount was determined as described above.

[4] = system: Locusta migratoria fourth instar nymphs; assay: Feeding bioassay: amount consumed and feeding deterrence index; type: in vivo
Procedure: New emerged fourth instar locust nymphs were starved 2 h before being introduced into a transparent plastic box (14 cm diameter, 8 cm high). For the non-choice experiment, the locusts were then supplied with two pieces of corn leaf (3 × 5 cm) of the same weight. One piece of the leaf was treated with an acetone solution of α-amylcinnamaldehyde (AMCAL) after the acetone evaporated completely, and the control leaf was just treated with same amount of actone. The natural concentrations of AMCAL found in non-host plants is usually less than 0.1% in weight. According to this, acetone solutions of AMCAL at concentrations of […] were used to treat corn leaves with a final concentration of 100 μg/cm^2, 50 μg/cm^2, 10 μg/cm^2, or 1 μg/cm^2, respectively.
Food consumption (S) was determined by the fresh/dry weight method as follows: a fresh corn leaf was cut in half from the main vein and weighted separately; one half was dried at 100 °C for 2 h to calculate fresh/dry weight ratio, calculated as R [34]; the other half, whose fresh weight was S1, was reserved for the feeding experiment. After feeding duration, the residual consumed leaf was dried and weighed as above, and the dry weight was labelled as S2. Food consumption was calculated as: S = S1/R − S2.
(§1) For the dual-choice experiment, the feeding deterrence index (FDI) was calculated using the formula: FDI = (C − T)/(C + T), where C and T indicated control and treated leaf consumption weights, respectively. For non-choice experiment, the FDI was calculated using the formula: FDI = (C − T)/C. A regression curve line against feeding deterrence index was created by Graphpad Prism 9 software (Graphpad Software, San Diego, CA, USA). The DC50 was defined as the concentration of AMCAL that halved the value of the feeding deterrence index.

[5] = system: Locusta migratoria fourth instar nymphs; assay: Dual-choice feeding assay with LmigCSPIII knockdown (dsRNA) and H2O-injected locusts; type: in vivo
Procedure: as §1
Double-stranded RNA was synthesized using the T7 RiboMAX™Express RNAi System (Promega, Madison, WI, USA), according to the manufacturer’s protocol. Briefly, we designed degenerate primers with a T7 promoter (Table 1) at the 5′ end based on an alignment of multiple LmigCSPIII sequences. The PCR-amplified fragment was purified and used as a template in the transcription reactions. After removing the DNA template and single-stranded RNA using a nuclease, we quantified the newly synthesized dsRNA and adjusted its concentration to 2.5 µg/µL. Locusts were anaesthetized on ice for easier handling during the injection process. dsRNA (2 µL) or DEPC (Diethy Pyrocarbonate) treated water (2 µL, Sangon Biotech) was injected into the dorsal intrasegmental membrane between the third and fourth abdominal segments of newly-molted third or fourth instar locusts using a microsyringe (Narishige, Tokyo, Japan), similarly to previous experiments.
The treatments and calculation methods for detecting the effects of suppression of LmigCSPIII on locusts are similar to in the dual-choice experiment.
To determine the effects of RNAi of LmigCSPIII on its role in detecting AMCAL, we created mutants by injecting with dsRNA of LmigCSPIII into fourth instar nymphs within 2 days after molting. These locusts were then provided with the corn leaves treated with AMCAL or solvent 72 h after injection. The duration of the experiment was 2 h.

[6] = system: Locusta migratoria nymphs; settings: third instar, 100 μg/cm^2, after 3 or 4 days, vs control, p < 0.001
[7] = system: desert locust; set-up: method as in PMID 12770479; settings: 7 µg/g body weight; cited from earlier work
[8] = criterion for being regarded as able to bind, Figure 4, read-out: IC50 (concentration of ligand that halved the initial fluorescence of 1-NPN)

T1 sequence (Q3LB86 entry or part of it): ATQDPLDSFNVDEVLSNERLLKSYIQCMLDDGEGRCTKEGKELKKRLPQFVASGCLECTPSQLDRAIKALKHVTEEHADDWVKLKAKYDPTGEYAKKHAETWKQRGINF

Compound	IC50 [1, 8]	IC50 [1]	further results
c1ccc(Nc2cccc3ccccc23)cc1 [1-NPN, N-phenyl-1-naphthylamine, reference compound]			Kd [1]: 3.3 µM
CCCCCCCCCCCCCCCCCO [Heptadecanol]	< 20 µM		
OC1CCCCC1 [Cyclohexanol]		< 20 µM	
CCC/C=C/C=O [trans-2-hexenal, trans-2-Hexenal]		< 20 µM	displacement of 1-NPN from LmigCSPIII [2]: able to displace 1-NPN
COc1ccccc1O [Guaicacol]	< 20 µM		
O=Cc1ccccc1 [Benzaldehyde]		< 20 µM	
CCCCC/C(C=O)=C/c1ccccc1 [AMCAL, α-amylcinnamaldehyde]	< 20 µM		binding affinity to LmigCSPIII (in words) [1]: strongest affinity; also recorded: highest affinity; Feeding response (FR) to treated leaves ([3]; 50 μg/cm^2, antennae excised): 45%; Feeding response (FR) to treated leaves ([3]; 50 μg/cm^2, antennae intact): 47%; mean consumption of food containing the chemical ([4]; 1 μg/cm^2, p > 0.05, Dunnett test): slight and insignificant decrease; mean consumption of food containing the chemical ([4]; 10 μg/cm^2, p < 0.01, Dunnett test): Significant feeding inhibition; DC50 (concentration that halved the feeding deterrence index) ([4]; from regression curve of feeding deterrence index, Figure 5D): 12 μg/cm^2; feeding deterrence index (FDI) ([5]; 1 μg/cm^2, RNAi group): −2%; feeding deterrence index (FDI) ([5]; 10 μg/cm^2, control group (H2O-injected locusts)): 50%; feeding deterrence index (FDI) ([5]; 10 μg/cm^2, locusts injected with dsRNA of LmigCSPIII): 22%; feeding deterrence index (FDI) ([5]; 50 μg/cm^2, RNAi group): 69%; weight increase of nymphs [6]: significantly less than that of the control group
C/C=C(\C)C(=O)O[C@H]1C[C@@H](OC(C)=O)[C@@]2(C(=O)OC)CO[C@H]3[C@@H](O)[C@@](C)([C@]45O[C@@]4(C)[C@H]4C[C@@H]5O[C@@H]5OC=C[C@@]54O)[C@H]4[C@]1(CO[C@]4(O)C(=O)OC)[C@@H]32 [azadirachtin]			physiological effects in the desert locust [7]: reduces fitness and fertility, and interferes with molting
CCCCCC(C)=O [2-heptanone]	< 20 µM		displacement of 1-NPN from LmigCSPIII [2]: able to displace 1-NPN
CCCCOC(=O)c1ccccc1C(=O)OCCCC [Dibutyl phthalate]		< 20 µM	
CC(C)CCO [3-Methyl-1-butanol]	< 20 µM		Kd ([1]; calculated from IC50 of 1-NPN displacement, read-out: dissociation constant (KD) of competitor): 6.02 ± 0.17 µM
CCCCCCCC/C=C\CCCCCCCC(N)=O [oleamide, Oleamide]		< 20 µM	binding affinity to LmigCSPIII (in words) [1]: quite high binding affinity
Cc1cnc(C)cn1 [2,5-Dimetylpyrazine]	< 20 µM		
Oc1ccccc1 [Phenol]		< 20 µM	
CCOC(=O)c1ccccc1C(=O)OCC [Diethyl phthalate]		< 20 µM	
Nc1cccc2cc3ccccc3cc12 [1-aminoanthracene]			binding affinity to LmigCSPIII (in words) [1]: strongest affinity
CCCCCCCCCCCCCCCO [Pentadecanol]	< 20 µM		
C=C(C)C(=O)OCCCCCCCCCCCC [Dodecyl 2-methylacrylate]	< 20 µM		
N#CCc1ccccc1 [Benzeneacetonitrile]		< 20 µM	
CC(O)c1ccccc1 (racemic) [DL-sec-phenethyl alcohol]	< 20 µM		
CCCCCCCCCCCCCCCCO [Hexadecanol]	< 20 µM		
